Reference: the supplement of paper PMC13207355

Columns and labels:
Conditions in all cases: exposure time: 72 h
[1] = tested on: E31 (patient-derived glioblastoma stem cells of proneural subtype); experiment: surviving fraction (nuclei count normalised to DMSO); higher = more cells surviving (less toxic)
[2] = tested on: FT3469 (normal neural stem cell line); experiment: as above
[3] = tested on: E34 (patient-derived glioblastoma stem cells of proneural subtype); experiment: as above
[4] = tested on: E21 (patient-derived glioblastoma stem cells of mesenchymal subtype); experiment: as above
[5] = tested on: E28 (patient-derived glioblastoma stem cells of classical subtype); experiment: as above
[6] = tested on: E57 (patient-derived glioblastoma stem cells of mesenchymal subtype); experiment: as above
[7] = tested on: E13 (patient-derived glioblastoma stem cells of classical subtype); experiment: as above
[8] = tested on: E31; experiment: phenotypic distance (Euclidean, principal components) from DMSO controls (arbitrary units); higher = stronger morphological change
[9] = tested on: FT3469; experiment: as above
[10] = tested on: E34; experiment: as above
[11] = tested on: E21; experiment: as above
[12] = tested on: E28; experiment: as above
[13] = tested on: E57; experiment: as above
[14] = tested on: E13; experiment: as above
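For phenotypic distance (Euclidean, principal components) from DMSO controls in this document: cell Painting imaging in 384-well plates, CellProfiler features reduced to at least 20 principal components, Euclidean distance versus same-plate DMSO vehicle wells (0.1% v/v), median over six images per well.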
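For surviving fraction (nuclei count normalised to DMSO) in this document: nuclei counted by high-content imaging of Hoechst-stained cells in laminin-coated 384-well plates, relative to 0.1% DMSO vehicle wells, with staurosporine as cell-death control.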

## Cc1cc(CN)cc(C)c1NC(=O)c1ccc(-c2cc(Cl)ccc2Cl)o1
[1]; 3000 nM
  surviving fraction: 0.856
[2]; 3000 nM
  surviving fraction: 0.883
[3]; 3000 nM
  surviving fraction: 0.829
[4]; 3000 nM
  surviving fraction: 0.862
[5]; 3000 nM
  surviving fraction: 0.919
[6]; 3000 nM
  surviving fraction: 0.964
[7]; 3000 nM
  surviving fraction: 0.865
[8]; 3000 nM
  phenotypic distance: 1.86
[9]; 3000 nM
  phenotypic distance: 0.784
[10]; 3000 nM
  phenotypic distance: 0.825
[11]; 3000 nM
  phenotypic distance: 0.968
[12]; 3000 nM
  phenotypic distance: 0.815
[13]; 3000 nM
  phenotypic distance: 1.29
[14]; 3000 nM
  phenotypic distance: 1.34

## Cc1c2ccncc2c(C)c2c1[nH]c1ccccc12 [Ellipticine]
[1]; 4.1 nM
  surviving fraction: 1.02
[1]; 12.3 nM
  surviving fraction: 0.977
[1]; 37 nM
  surviving fraction: 1.07
[1]; 111.1 nM
  surviving fraction: 0.963
[1]; 333.3 nM
  surviving fraction: 0.768
[1]; 1000 nM
  surviving fraction: 0.648
[1]; 3000 nM
  surviving fraction: 0.395
[2]; 4.1 nM
  surviving fraction: 1.13
[2]; 12.3 nM
  surviving fraction: 1.11
[2]; 37 nM
  surviving fraction: 1.08
[2]; 111.1 nM
  surviving fraction: 1.11
[2]; 333.3 nM
  surviving fraction: 1.3
[2]; 1000 nM
  surviving fraction: 0.787
[2]; 3000 nM
  surviving fraction: 0.649
[3]; 4.1 nM
  surviving fraction: 1.07
[3]; 12.3 nM
  surviving fraction: 0.94
[3]; 37 nM
  surviving fraction: 1.04
[3]; 111.1 nM
  surviving fraction: 0.952
[3]; 333.3 nM
  surviving fraction: 0.935
[3]; 1000 nM
  surviving fraction: 0.753
[3]; 3000 nM
  surviving fraction: 0.534
[4]; 4.1 nM
  surviving fraction: 0.991
[4]; 12.3 nM
  surviving fraction: 1.07
[4]; 37 nM
  surviving fraction: 0.888
[4]; 111.1 nM
  surviving fraction: 0.831
[4]; 333.3 nM
  surviving fraction: 0.754
[4]; 1000 nM
  surviving fraction: 0.72
[4]; 3000 nM
  surviving fraction: 0.499
[5]; 4.1 nM
  surviving fraction: 1.11
[5]; 12.3 nM
  surviving fraction: 1.11
[5]; 37 nM
  surviving fraction: 1.08
[5]; 111.1 nM
  surviving fraction: 1.05
[5]; 333.3 nM
  surviving fraction: 0.967
[5]; 1000 nM
  surviving fraction: 0.668
[5]; 3000 nM
  surviving fraction: 0.352
[6]; 4.1 nM
  surviving fraction: 0.88
[6]; 12.3 nM
  surviving fraction: 0.933
[6]; 37 nM
  surviving fraction: 0.926
[6]; 111.1 nM
  surviving fraction: 0.959
[6]; 333.3 nM
  surviving fraction: 0.867
[6]; 1000 nM
  surviving fraction: 0.784
[6]; 3000 nM
  surviving fraction: 0.409
[7]; 4.1 nM
  surviving fraction: 1.06
[7]; 12.3 nM
  surviving fraction: 0.896
[7]; 37 nM
  surviving fraction: 0.936
[7]; 111.1 nM
  surviving fraction: 0.958
[7]; 333.3 nM
  surviving fraction: 0.912
[7]; 1000 nM
  surviving fraction: 0.784
[7]; 3000 nM
  surviving fraction: 0.473
[8]; 4.1 nM
  phenotypic distance: 0.486
[8]; 12.3 nM
  phenotypic distance: 0.52
[8]; 37 nM
  phenotypic distance: 0.379
[8]; 111.1 nM
  phenotypic distance: 0.662
[8]; 333.3 nM
  phenotypic distance: 0.789
[8]; 1000 nM
  phenotypic distance: 1.24
[8]; 3000 nM
  phenotypic distance: 2.27
[9]; 4.1 nM
  phenotypic distance: 1.04
[9]; 12.3 nM
  phenotypic distance: 0.711
[9]; 37 nM
  phenotypic distance: 0.462
[9]; 111.1 nM
  phenotypic distance: 0.869
[9]; 333.3 nM
  phenotypic distance: 1.18
[9]; 1000 nM
  phenotypic distance: 1.47
[9]; 3000 nM
  phenotypic distance: 1.7
[10]; 4.1 nM
  phenotypic distance: 0.723
[10]; 12.3 nM
  phenotypic distance: 0.43
[10]; 37 nM
  phenotypic distance: 0.492
[10]; 111.1 nM
  phenotypic distance: 0.978
[10]; 333.3 nM
  phenotypic distance: 1.01
[10]; 1000 nM
  phenotypic distance: 1.43
[10]; 3000 nM
  phenotypic distance: 2.39
[11]; 4.1 nM
  phenotypic distance: 1.16
[11]; 12.3 nM
  phenotypic distance: 1.17
[11]; 37 nM
  phenotypic distance: 1.79
[11]; 111.1 nM
  phenotypic distance: 2.04
[11]; 333.3 nM
  phenotypic distance: 2.29
[11]; 1000 nM
  phenotypic distance: 2.28
[11]; 3000 nM
  phenotypic distance: 2.98
[12]; 4.1 nM
  phenotypic distance: 0.578
[12]; 12.3 nM
  phenotypic distance: 0.641
[12]; 37 nM
  phenotypic distance: 0.588
[12]; 111.1 nM
  phenotypic distance: 0.478
[12]; 333.3 nM
  phenotypic distance: 0.804
[12]; 1000 nM
  phenotypic distance: 1.01
[12]; 3000 nM
  phenotypic distance: 2.73
[13]; 4.1 nM
  phenotypic distance: 1.05
[13]; 12.3 nM
  phenotypic distance: 0.752
[13]; 37 nM
  phenotypic distance: 1.12
[13]; 111.1 nM
  phenotypic distance: 1.64
[13]; 333.3 nM
  phenotypic distance: 1.87
[13]; 1000 nM
  phenotypic distance: 2.3
[13]; 3000 nM
  phenotypic distance: 4.58
[14]; 4.1 nM
  phenotypic distance: 0.815
[14]; 12.3 nM
  phenotypic distance: 0.556
[14]; 37 nM
  phenotypic distance: 0.741
[14]; 111.1 nM
  phenotypic distance: 0.932
[14]; 333.3 nM
  phenotypic distance: 1.52
[14]; 1000 nM
  phenotypic distance: 2.23
[14]; 3000 nM
  phenotypic distance: 4.47
